Reference: patent publication US20250213555A1, “SUBSTITUTED TETRAHYDROFURAN ANALOGS AS MODULATORS OF SODIUM CHANNELS” (VERTEX PHARMACEUTICALS INCORPORATED, priority 2021, published 2025)

The compounds below were run against human Nav 1.8 (Homo sapiens, UniProt Q9Y5Y9) (assay: E-VIPR assay detecting and measuring Nav inhibition properties). Conditions: HEK cells expressing a truncated form of human Nav 1.8; compound numbers without "*" (not marked as run in the presence of human serum); read-out: measured IC50 value in the E-VIPR Assay.
Sequence of human Nav 1.8 (Q9Y5Y9 126-399 limits assumed): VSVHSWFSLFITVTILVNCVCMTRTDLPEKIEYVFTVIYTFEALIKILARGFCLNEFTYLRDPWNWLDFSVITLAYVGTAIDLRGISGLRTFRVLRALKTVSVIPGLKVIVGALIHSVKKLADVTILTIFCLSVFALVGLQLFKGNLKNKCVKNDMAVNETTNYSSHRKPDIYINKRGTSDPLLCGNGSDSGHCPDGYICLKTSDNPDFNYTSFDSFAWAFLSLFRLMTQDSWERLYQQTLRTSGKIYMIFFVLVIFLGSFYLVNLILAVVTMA
Sequence of human Nav 1.8 (Q9Y5Y9 660-890 limits assumed): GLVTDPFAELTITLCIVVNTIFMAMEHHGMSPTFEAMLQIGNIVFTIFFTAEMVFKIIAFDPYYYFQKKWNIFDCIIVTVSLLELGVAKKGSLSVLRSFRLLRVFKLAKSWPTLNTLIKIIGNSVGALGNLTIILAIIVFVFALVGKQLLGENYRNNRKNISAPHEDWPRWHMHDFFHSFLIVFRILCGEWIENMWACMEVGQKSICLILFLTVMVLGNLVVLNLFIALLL
Sequence of human Nav 1.8 (Q9Y5Y9 1148-1722 limits assumed): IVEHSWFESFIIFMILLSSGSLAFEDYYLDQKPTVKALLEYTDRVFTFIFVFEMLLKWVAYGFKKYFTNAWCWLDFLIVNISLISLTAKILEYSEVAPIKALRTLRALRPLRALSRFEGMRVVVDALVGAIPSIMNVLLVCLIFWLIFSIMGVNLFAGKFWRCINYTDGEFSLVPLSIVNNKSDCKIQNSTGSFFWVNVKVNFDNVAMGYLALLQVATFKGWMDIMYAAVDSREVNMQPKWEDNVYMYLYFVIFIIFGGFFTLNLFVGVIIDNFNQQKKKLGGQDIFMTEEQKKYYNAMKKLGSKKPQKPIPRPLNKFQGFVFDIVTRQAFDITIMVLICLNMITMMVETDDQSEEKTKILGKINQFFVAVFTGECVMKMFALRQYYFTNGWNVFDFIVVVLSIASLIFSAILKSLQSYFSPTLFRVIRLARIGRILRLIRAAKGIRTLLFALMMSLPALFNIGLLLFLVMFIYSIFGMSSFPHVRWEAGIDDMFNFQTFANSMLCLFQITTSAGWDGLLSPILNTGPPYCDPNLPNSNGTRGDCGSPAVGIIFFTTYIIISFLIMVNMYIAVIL
Format: cell-based
Method in brief: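 Nav inhibition was read by E-VIPR: cells were electrically stimulated while coumarin/oxonol FRET emissions were recorded. Cells were HEK expressing a truncated human Nav 1.8 and co-transduced with KIR2.1, and were assayed in 25% final human serum.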

SMILES	IC50
C[C@H]1[C@@H](c2ccc(F)c(F)c2OCCn2ccnc2)[C@H](C(=O)Nc2ccnc(C(N)=O)c2)O[C@@]1(C)C(F)(F)F [Compound 45, 4-((2R,3S,4S,5R)-3-(2-(2-(1H-imidazol-1-yl)ethoxy)-3,4-difluorophenyl)-4,5-dimethyl-5-(trifluoromethyl)tetrahydrofuran-2-carboxamido)picolinamide]	< 0.01 µM
COc1c([C@H]2[C@H](C(=O)Nc3ccnc(C(=O)N4C[C@H](F)[C@@H](N(C)C)C4)c3)O[C@@](C)(C(F)(F)F)[C@H]2C)ccc(F)c1F [Compound 301, (2R,3S,4S,5R)-3-(3,4-difluoro-2-methoxyphenyl)-N-(2-((3S,4S)-3-(dimethylamino)-4-fluoropyrrolidine-1-carbonyl)pyridin-4-yl)-4,5-dimethyl-5-(trifluoromethyl)tetrahydrofuran-2-carboxamide]	0.01 to 0.1 µM
C[C@H]1[C@@H](c2ccc(F)c(F)c2OCCC(C)(C)O)[C@H](C(=O)Nc2ccnc(C(N)=O)c2)O[C@@]1(C)C(F)(F)F [Compound 100, 4-((2R,3S,4S,5R)-3-(3,4-difluoro-2-(3-hydroxy-3-methylbutoxy)phenyl)-4,5-dimethyl-5-(trifluoromethyl)tetrahydrofuran-2-carboxamido)picolinamide]	0.01 to 0.1 µM
COCC[C@@]1(C)C[C@H](c2ccc(F)c(F)c2OC)[C@@H](C(=O)Nc2ccnc(C(N)=O)c2)O1 (single isomer, unassigned) [Compound 31]	0.1 to 1 µM
C[C@H]1[C@@H](c2ccc(F)c(F)c2OCCN2CC(C)(F)C2)[C@H](C(=O)Nc2ccnc(C(N)=O)c2)O[C@@]1(C)C(F)(F)F [Compound 121, 4-((2R,3S,4S,5R)-3-(3,4-difluoro-2-(2-(3-fluoro-3-methylazetidin-1-yl)ethoxy)phenyl)-4,5-dimethyl-5-(trifluoromethyl)tetrahydrofuran-2-carboxamido)picolinamide]	< 0.01 µM
C[C@H]1[C@@H](c2cc(Br)c(F)c(F)c2O)[C@H](C(=O)Nc2ccnc(C(N)=O)c2)O[C@@]1(C)C(F)(F)F [Compound 176, 4-((2R,3S,4S,5R)-3-(5-bromo-3,4-difluoro-2-hydroxyphenyl)-4,5-dimethyl-5-(trifluoromethyl)tetrahydrofuran-2-carboxamido)picolinamide]	≥ 1 µM
CCOc1ccc([C@@H]2[C@@H](C(=O)Nc3ccnc(C(N)=O)c3)O[C@](C)(C(F)(F)F)[C@@H]2C)c2c1OC(F)(F)O2 (single isomer, unassigned) [Compound 209]	≥ 1 µM
CC1C(c2ccc(F)c(F)c2OCC2CC(C)(O)C2)C(C(=O)Nc2ccnc(C(N)=O)c2)OC1(C)C(F)(F)F [Compound 199, rel-4-((2R*,3S*,4S*,5R*)-3-(3,4-difluoro-2-(((1r,3S)-3-hydroxy-3-methylcyclobutyl)methoxy)phenyl)-4,5-dimethyl-5-(trifluoromethyl)tetrahydrofuran-2-carboxamido)picolinamide]	0.01 to 0.1 µM
C[C@H]1[C@@H](c2ccc(F)c(F)c2OCCN2CC(C(F)F)C2)[C@H](C(=O)Nc2ccnc(C(N)=O)c2)O[C@@]1(C)C(F)(F)F [Compound 120, 4-((2R,3S,4S,5R)-3-(2-(2-(3-(difluoromethyl)azetidin-1-yl)ethoxy)-3,4-difluorophenyl)-4,5-dimethyl-5-(trifluoromethyl)tetrahydrofuran-2-carboxamido)picolinamide]	< 0.01 µM
C[C@H]1[C@@H](c2ccc(F)c(F)c2OCC2(C)COC2)[C@H](C(=O)Nc2ccnc(C(N)=O)c2)O[C@@]1(C)C(F)(F)F [Compound 63, 4-((2R,3S,4S,5R)-3-(3,4-difluoro-2-((3-methyloxetan-3-yl)methoxy)phenyl)-4,5-dimethyl-5-(trifluoromethyl)tetrahydrofuran-2-carboxamido)picolinamide]	0.01 to 0.1 µM
CO[C@@H]1CCN(CCOc2c([C@H]3[C@H](C(=O)Nc4ccnc(C(N)=O)c4)O[C@@](C)(C(F)(F)F)[C@H]3C)ccc(F)c2F)C1 [Compound 128, 4-((2R,3S,4S,5R)-3-(3,4-difluoro-2-(2-((R)-3-methoxypyrrolidin-1-yl)ethoxy)phenyl)-4,5-dimethyl-5-(trifluoromethyl)tetrahydrofuran-2-carboxamido)picolinamide]	0.01 to 0.1 µM

Next, values leading:

IC50	SMILES
0.01 to 0.1 µM	CC(=O)COc1c([C@H]2[C@H](C(=O)Nc3ccnc(C(N)=O)c3)O[C@@](C)(C(F)(F)F)[C@H]2C)ccc(F)c1F [Compound 79, 4-((2R,3S,4S,5R)-3-(3,4-difluoro-2-(2-oxopropoxy)phenyl)-4,5-dimethyl-5-(trifluoromethyl)tetrahydrofuran-2-carboxamido)picolinamide]
< 0.01 µM	C[C@@H](CO)COc1c([C@H]2[C@H](C(=O)Nc3ccnc(C(N)=O)c3)O[C@@](C)(C(F)(F)F)[C@H]2C)ccc(F)c1F [Compound 81, 4-((2R,3S,4S,5R)-3-(3,4-difluoro-2-((S)-3-hydroxy-2-methylpropoxy)phenyl)-4,5-dimethyl-5-(trifluoromethyl)tetrahydrofuran-2-carboxamido)picolinamide]
≥ 1 µM	COc1c(C2CC3(COC3)OC2C(=O)Nc2ccnc(C(N)=O)c2)ccc(F)c1C (single isomer, unassigned) [Compound 24]
≥ 1 µM	COc1c([C@@H]2[C@@H](C)[C@@](C)(C(F)(F)F)O[C@H]2C(=O)Nc2ccnc(C(N)=O)c2)ccc(OCC2CC2)c1F (single isomer, unassigned) [Compound 142]
0.01 to 0.1 µM	C[C@H]1[C@@H](c2ccc(F)c(F)c2OCCNC2COC2)[C@H](C(=O)Nc2ccnc(C(N)=O)c2)O[C@@]1(C)C(F)(F)F [Compound 118, 4-((2R,3S,4S,5R)-3-(3,4-difluoro-2-(2-(oxetan-3-ylamino)ethoxy)phenyl)-4,5-dimethyl-5-(trifluoromethyl)tetrahydrofuran-2-carboxamido)picolinamide]
0.01 to 0.1 µM	C[C@H]1[C@@H](c2ccc(F)c(F)c2O[C@@H]2CCN(C)C2)[C@H](C(=O)Nc2ccnc(C(N)=O)c2)O[C@@]1(C)C(F)(F)F (single isomer, unassigned) [Compound 102, rel-4-((2R*,3S*,4S*,5R*)-3-(3,4-difluoro-2-((-1-methylpyrrolidin-3-yl)oxy)phenyl)-4,5-dimethyl-5-(trifluoromethyl)tetrahydrofuran-2-carboxamido)picolinamide]
0.01 to 0.1 µM	C[C@H]1[C@@H](c2ccc(F)c(F)c2OCCN2CC(C)(O)C2)[C@H](C(=O)Nc2ccnc(C(N)=O)c2)O[C@@]1(C)C(F)(F)F [Compound 122, 4-((2R,3S,4S,5R)-3-(3,4-difluoro-2-(2-(3-hydroxy-3-methylazetidin-1-yl)ethoxy)phenyl)-4,5-dimethyl-5-(trifluoromethyl)tetrahydrofuran-2-carboxamido)picolinamide]
< 0.01 µM	CO[C@H](CO)COc1c([C@H]2[C@H](C(=O)Nc3ccnc(C(N)=O)c3)O[C@@](C)(C(F)(F)F)[C@H]2C)ccc(F)c1F (single isomer, unassigned) [Compound 160, rel-4-((2R*,3S*,4S*,5R*)-3-(3,4-difluoro-2-(3-hydroxy-2-methoxypropoxy)phenyl)-4,5-dimethyl-5-(trifluoromethyl)tetrahydrofuran-2-carboxamido)picolinamide]
0.01 to 0.1 µM	COc1c([C@H]2[C@H](C(=O)Nc3ccnc(C(=O)NC[C@]4(C)CCCN4)c3)O[C@@](C)(C(F)(F)F)[C@H]2C)ccc(F)c1F [Compound 233, 4-((2R,3S,4S,5R)-3-(3,4-difluoro-2-methoxyphenyl)-4,5-dimethyl-5-(trifluoromethyl)tetrahydrofuran-2-carboxamido)-N-(((S)-2-methylpyrrolidin-2-yl)methyl)picolinamide]
< 0.01 µM	CNC(=O)c1cc(NC(=O)[C@@H]2O[C@@](C)(C(F)(F)F)[C@@H](C)[C@H]2c2ccc(F)c(F)c2OCC2COC2)ccn1 [Compound 66]
< 0.01 µM	COc1c([C@H]2[C@H](C(=O)Nc3ccnc(C(=O)N4CCN(C)[C@H](C)C4)c3)O[C@@](C)(C(F)(F)F)[C@H]2C)ccc(F)c1F [Compound 288, (2R,3S,4S,5R)-3-(3,4-difluoro-2-methoxyphenyl)-N-(2-((R)-3,4-dimethylpiperazine-1-carbonyl)pyridin-4-yl)-4,5-dimethyl-5-(trifluoromethyl)tetrahydrofuran-2-carboxamide]
< 0.01 µM	COc1c([C@H]2[C@H](C(=O)Nc3ccnc(C(=O)N4CCO[C@H]5CNC[C@H]54)c3)O[C@@](C)(C(F)(F)F)[C@H]2C)ccc(F)c1F [Compound 243, (2R,3S,4S,5R)-3-(3,4-difluoro-2-methoxyphenyl)-4,5-dimethyl-N-(2-((4aR,7aS)-octahydropyrrolo[3,4-b][1,4]oxazine-4-carbonyl)pyridin-4-yl)-5-(trifluoromethyl)tetrahydrofuran-2-carboxamide]
≥ 1 µM	COCCOc1c([C@@H]2[C@@H](C(=O)Nc3ccnc(C(N)=O)n3)O[C@](C)(C(F)(F)F)[C@@H]2C)ccc(F)c1C (single isomer, unassigned) [Compound 4]
< 0.01 µM	C[C@H]1[C@@H](c2ccc(F)c(F)c2OCCCN2CC(F)C2)[C@H](C(=O)Nc2ccnc(C(N)=O)c2)O[C@@]1(C)C(F)(F)F [Compound 133, 4-((2R,3S,4S,5R)-3-(3,4-difluoro-2-(3-(3-fluoroazetidin-1-yl)propoxy)phenyl)-4,5-dimethyl-5-(trifluoromethyl)tetrahydrofuran-2-carboxamido)picolinamide]
< 0.01 µM	C[C@H](Oc1c([C@H]2[C@H](C(=O)Nc3ccnc(C(N)=O)c3)O[C@@](C)(C(F)(F)F)[C@H]2C)ccc(F)c1F)C1COC1 [Compound 158, 4-((2R,3S,4S,5R)-3-(3,4-difluoro-2-((S)-1-(oxetan-3-yl)ethoxy)phenyl)-4,5-dimethyl-5-(trifluoromethyl)tetrahydrofuran-2-carboxamido)picolinamide]
